In brackets after ≈: the same amount, converted by molar mass.
What was measured:
[1] = physchem; conditions: buffer, pH 7.4, logD
Description: (§1) Lipophilicity, log D of the compound at pH 7.4 by microscale shake flask method

[2] = target: Epidermal growth factor receptor (Homo sapiens, UniProt P00533, L858R/T790M)
[3] = system: NCI-H1975; experiment: Antiproliferative activity against human NCI-H1975 cells expressing EGFR T790M/L858R double mutant after 72 hrs by luminescence assay; assay type: functional, cell-based; conditions: NCI-H1975, 72 h
[4] = target: T1, Epidermal growth factor receptor (Homo sapiens, UniProt P00533)
[5] = target: T1, Epidermal growth factor receptor; remark: listed apart in the source
Description: Inhibition of EGFR phosphorylation in human NCI-H292 cells preincubated for 1 hr followed by stimulation with EGF for 8 mins by electrochemiluminescent immunoassay

[6] = system: Hepatocyte; experiment: Stability in human hepatocytes; assay type: ADME, cell-based
[7] = system: Liver microsome; experiment: Stability in human liver microsomes; assay type: ADME
[8] = Plasma clearance in rat at 5 mg/kg, iv; assay type: ADME, organism-based
[9] = system: Rattus norvegicus; experiment: Unbound plasma clearance in rat at 5 mg/kg, iv; assay type: ADME, organism-based; conditions: in vivo
[10] = species on record: Homo sapiens; experiment: Selectivity ratio of Ki for human wild type EGFR to Ki for human EGFR T790M/L858R double mutant
[11] = Kinetic solubility of compound in PBS at pH 7.4 at 100 uM after 24 hrs; assay type: physicochemical; conditions: read-out: Kinetic_solubility
[12] = Apparent permeability from apical to basolateral side in MDCK cells; assay type: ADME, cell-based, Canis lupus familiaris; conditions: dog
[13] = Oral bioavailability in rat at 10 mg/kg; assay type: ADME, organism-based; conditions: in vivo
[14] = Chemical stability under acidic conditions assessed as amide hydrolysis to acid form; assay type: physicochemical
[15] = Plasma clearance in rat at 0.5 mg/kg, iv; assay type: ADME, organism-based
[16] = system: Rattus norvegicus; experiment: Unbound plasma clearance in rat at 0.5 mg/kg, iv; assay type: ADME, organism-based; conditions: in vivo
[17] = buffer, pH 7.4
Description: as §1

[18] = target: T2, Epidermal growth factor receptor (Homo sapiens, UniProt P00533, 746-750DEL/T790M); experiment: Inhibition of human EGFR T790M/del (746 to 750) deletion mutant using Fl-EEPLYWSFPAKKK-CONH2 as substrate preincubated for 30 mins followed by addition of substrate measured after 30 mins by Morrison plot analysis; assay type: protein assay; conditions: read-out: Ki(app)
[19] = system: Liver microsome; experiment: Drug metabolism in rat liver microsomes assessed as cis-3-Fluoro-1-{4-[2-((R)-1-hydroxyethyl)-1-((S)-2,2,2-trifluoro-1-methylethyl)-1Himidazo[4,5-c]pyridin-6-ylamino]pyrimidin-2-yl}piperidin-4-ol; assay type: ADME
[20] = system: Hepatocyte; experiment: Drug metabolism in rat hepatocytes assessed as cis-3-Fluoro-1-{4-[2-((R)-1-hydroxyethyl)-1-((S)-2,2,2-trifluoro-1-methylethyl)-1Himidazo[4,5-c]pyridin-6-ylamino]pyrimidin-2-yl}piperidin-4-ol; assay type: ADME, cell-based
[21] = system: NCI-H292; experiment: Antiproliferative activity against human NCI-H292 cells expressing wild type EGFR after 72 hrs by luminescence assay; assay type: functional, cell-based; conditions: NCI-H292, 72 h
[22] = Antiproliferative activity against erlotinib-resistant human PC9 cells expressing EGFR with ex19del and T790M mutations after 72 hrs by luminescence assay; assay type: functional, cell-based; conditions: PC-9, 72 h
[23] = Half life in rat; assay type: ADME, organism-based; conditions: in vivo
[24] = Volume of distribution at steady state in rat; assay type: ADME, organism-based; conditions: in vivo, read-out: Vdss
[25] = Oral bioavailability in rat; assay type: ADME, organism-based; conditions: in vivo
[26] = target: T2, Epidermal growth factor receptor; experiment: Inhibition of EGFR T790M/del (746 to 750) deletion mutant phosphorylation in erlotinib-resistant human PC9 cells preincubated for 1 hr followed by stimulation with EGF for 8 mins by electrochemiluminescent immunoassay; assay type: cell-based, PC-9
[27] = Plasma clearance in rat at 1 mg/kg, iv; assay type: ADME, organism-based
[28] = system: Rattus norvegicus; experiment: Unbound plasma clearance in rat at 1 mg/kg, iv; assay type: ADME, organism-based; conditions: in vivo

Chain of Epidermal growth factor receptor (Homo sapiens, UniProt P00533, L858R/T790M) (P00533 25-1210 T790M/L858R limits assumed): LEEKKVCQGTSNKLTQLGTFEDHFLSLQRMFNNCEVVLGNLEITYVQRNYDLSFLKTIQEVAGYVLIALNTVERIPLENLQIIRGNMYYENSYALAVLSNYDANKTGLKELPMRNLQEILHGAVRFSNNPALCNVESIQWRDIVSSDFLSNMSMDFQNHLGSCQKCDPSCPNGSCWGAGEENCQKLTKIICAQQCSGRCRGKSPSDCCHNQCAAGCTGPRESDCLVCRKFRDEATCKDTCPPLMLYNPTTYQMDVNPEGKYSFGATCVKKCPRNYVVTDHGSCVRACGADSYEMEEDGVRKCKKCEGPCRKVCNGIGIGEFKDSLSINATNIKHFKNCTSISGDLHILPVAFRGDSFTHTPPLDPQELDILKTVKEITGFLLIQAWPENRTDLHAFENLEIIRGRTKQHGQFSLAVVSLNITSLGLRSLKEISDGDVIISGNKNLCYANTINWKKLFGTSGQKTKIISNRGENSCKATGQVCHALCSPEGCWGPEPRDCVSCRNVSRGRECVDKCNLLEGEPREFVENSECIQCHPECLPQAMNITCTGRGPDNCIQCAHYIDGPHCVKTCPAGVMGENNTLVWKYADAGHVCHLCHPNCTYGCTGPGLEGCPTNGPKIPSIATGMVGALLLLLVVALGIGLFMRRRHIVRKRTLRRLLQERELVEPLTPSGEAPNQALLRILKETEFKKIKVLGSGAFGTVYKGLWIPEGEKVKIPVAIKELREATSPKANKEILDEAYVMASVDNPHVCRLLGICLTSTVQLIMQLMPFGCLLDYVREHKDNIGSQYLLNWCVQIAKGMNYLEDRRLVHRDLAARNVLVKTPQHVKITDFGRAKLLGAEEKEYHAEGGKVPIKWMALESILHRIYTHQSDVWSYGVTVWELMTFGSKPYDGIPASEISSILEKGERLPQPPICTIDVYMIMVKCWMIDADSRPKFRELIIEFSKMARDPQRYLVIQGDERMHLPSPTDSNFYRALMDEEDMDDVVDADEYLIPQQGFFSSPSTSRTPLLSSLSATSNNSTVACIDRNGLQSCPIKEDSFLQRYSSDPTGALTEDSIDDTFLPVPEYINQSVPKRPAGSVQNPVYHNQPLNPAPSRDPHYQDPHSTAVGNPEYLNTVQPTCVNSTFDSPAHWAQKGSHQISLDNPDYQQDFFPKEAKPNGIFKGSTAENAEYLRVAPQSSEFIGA
T1 sequence (P00533 whole entry): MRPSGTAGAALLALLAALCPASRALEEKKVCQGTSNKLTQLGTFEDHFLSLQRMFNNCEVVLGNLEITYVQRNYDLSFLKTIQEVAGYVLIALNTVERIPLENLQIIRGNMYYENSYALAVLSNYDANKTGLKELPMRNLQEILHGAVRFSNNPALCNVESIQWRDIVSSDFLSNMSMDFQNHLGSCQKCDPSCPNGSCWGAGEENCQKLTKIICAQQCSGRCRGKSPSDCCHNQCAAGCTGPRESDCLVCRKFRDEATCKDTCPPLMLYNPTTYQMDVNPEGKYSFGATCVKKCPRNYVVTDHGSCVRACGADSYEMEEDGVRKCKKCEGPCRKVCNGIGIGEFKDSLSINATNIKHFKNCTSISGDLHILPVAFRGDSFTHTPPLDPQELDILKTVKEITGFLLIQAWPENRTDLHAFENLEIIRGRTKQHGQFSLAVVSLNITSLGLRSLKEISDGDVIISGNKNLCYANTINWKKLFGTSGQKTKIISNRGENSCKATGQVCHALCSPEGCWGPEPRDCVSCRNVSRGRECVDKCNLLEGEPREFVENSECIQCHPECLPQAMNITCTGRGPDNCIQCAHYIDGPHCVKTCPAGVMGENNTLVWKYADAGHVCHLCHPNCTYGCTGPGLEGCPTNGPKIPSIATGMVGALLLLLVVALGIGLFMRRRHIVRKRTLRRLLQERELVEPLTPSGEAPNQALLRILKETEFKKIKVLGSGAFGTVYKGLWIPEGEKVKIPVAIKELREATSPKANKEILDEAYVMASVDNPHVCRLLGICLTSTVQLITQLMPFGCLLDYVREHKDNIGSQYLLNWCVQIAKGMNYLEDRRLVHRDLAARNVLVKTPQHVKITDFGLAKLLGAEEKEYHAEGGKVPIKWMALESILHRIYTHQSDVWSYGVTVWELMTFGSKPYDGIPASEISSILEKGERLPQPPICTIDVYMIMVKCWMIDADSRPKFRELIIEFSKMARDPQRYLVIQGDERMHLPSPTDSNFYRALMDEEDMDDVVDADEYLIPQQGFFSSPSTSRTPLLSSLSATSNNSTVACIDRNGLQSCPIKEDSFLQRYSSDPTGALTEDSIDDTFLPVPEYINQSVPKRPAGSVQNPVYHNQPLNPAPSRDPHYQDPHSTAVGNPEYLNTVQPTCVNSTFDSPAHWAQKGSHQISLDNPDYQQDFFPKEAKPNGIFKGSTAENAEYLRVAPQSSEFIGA
T2 sequence (P00533 whole entry, looked up, stated change not applied): as the sequence (P00533 whole entry) above

Row | Compound | logD [1] | Ki [2] [nM] | Ki [4] [nM] | further results
1 | COC1CCN(c2nccc(Nc3cc4c(cn3)ncn4C3CCCC3)n2)CC1 | 2.9 | – | – | –
2 | COC1CCN(c2nccc(Nc3cc4c(cn3)ncn4C3CCC3)n2)CC1 | 2.8 | 48 | – | –
3 | Cc1nc2cnc(Nc3ccnc(N4CC[C@H](O)C(F)(F)C4)n3)cc2n1C(C)C (racemic) | 2.6 | 9.5 | > 403 | EC50 [3]: 1700 nM; IC50 [5]: > 10000 nM
4 | Cc1nc2cnc(Nc3ccnc(N4CCC(C)(C(N)=O)C4)n3)cc2n1C(C)C (stereo unspecified) | 1.6 | 124 | 681 | Stability [6]: Stable; Stability [7]: Stable
5 | CO[C@H]1CCN(c2nccc(Nc3cc4c(cn3)nc(CO)n4C(C)C)n2)C[C@@H]1F (racemic) | – | 57 | 540 | –
6 | COC1CCN(c2nccc(Nc3cc4c(cn3)nc(C)n4C(C)C)n2)CC1 | 2.4 | 19 | 875 | Stability [6]: Stable; clearance [8]: 40 mL/min/kg; CL free [9]: 620 mL/min/kg; EC50 [3]: 6700 nM; Ratio Ki [10]: 46; solubility kinetic at 24 h, 100 µM [11]: 87 µM (≈ 33.2 µg/mL); Papp A→B [12]: 29 ×10⁻⁶ cm/s; bioavailability [13]: 30%; IC50 [5]: > 10000 nM
7 | COC1CCN(c2nccc(Nc3cc4c(cn3)nc(CO)n4C(C)C)n2)CC1 | 2.3 | 19 | 400 | EC50 [3]: 6500 nM
8 | COC1(CCO)CCN(c2nccc(Nc3cc4c(cn3)nc(C)n4C(C)C)n2)CC1 | 2 | 50 | – | –
9 | Cc1nc2cnc(Nc3ccnc(NCC(C)(C)C(N)=O)n3)cc2n1C(C)C | 1.5 | 22 | 390 | Stability [14]: Unstable; clearance [15]: 250 mL/min/kg; CL free [16]: 909 mL/min/kg
10 | COC1CCN(c2nccc(Nc3cc4c(cn3)ncn4C3CCOC3)n2)CC1 (racemic) | 1.8 | 149 | – | –
11 | COCC1(OC)CCN(c2nccc(Nc3cc4c(cn3)nc(C)n4C(C)C)n2)CC1 | 2.4 | 77 | – | –
12 | CO[C@H]1CCN(c2nccc(Nc3cc4c(cn3)nc(C)n4C(C)C)n2)C[C@@H]1F (racemic) | 2.5 | 44 | 1840 | –
13 | CCC(C)n1cnc2cnc(Nc3ccnc(N4CCC(OC)CC4)n3)cc21 (racemic; form 3) | – | 22 | – | –
14 | CCn1cnc2cnc(Nc3ccnc(N4CCC(OC)CC4)n3)cc21 | 2.4 | 201 | – | –
15 | COC1CCN(c2nccc(Nc3cc4c(cn3)ncn4C3CCCCC3)n2)CC1 | 3.4 | 18 | – | –
16 | CO[C@H]1CCN(c2nccc(Nc3cc4c(cn3)nc(CO)n4C(C)C)n2)CC1(F)F (racemic) | 2.8 | – | – | EC50 [3]: 2380 nM
17 | COC1(CCN)CCN(c2nccc(Nc3cc4c(cn3)nc(C)n4C(C)C)n2)CC1 | 0.1 | – | – | Stability [7]: Stable
18 | COC1CCN(c2nccc(Nc3cc4[nH]cnc4cn3)n2)CC1 | 1.9 | – | 1200 | EC50 [3]: 7000 nM
19 | COC1CCN(c2nccc(Nc3cc4c(cn3)ncn4C3CCOCC3)n2)CC1 | 2.1 | 76 | – | –
20 | Cc1nc2cnc(Nc3ccnc(N4CCC(S(C)(=O)=O)CC4)n3)cc2n1C(C)C | 1.6 | 64 | – | Stability [6]: Stable; Stability [7]: Stable; clearance [15]: 165 mL/min/kg; CL free [16]: 934 mL/min/kg

Row | Compound | logD [1] | Ki [2] [nM] | Ki [4] [nM] | further results
21 | COC1CCN(c2nccc(Nc3cc4c(cn3)ncn4C(C)C(F)(F)F)n2)CC1 (racemic) | 2.7 | 27 | – | –
22 | COC1CCN(c2nccc(Nc3cc4c(cn3)ncn4C3CC3)n2)CC1 | 2.3 | 87 | – | –
23 | CCC(C)n1cnc2cnc(Nc3ccnc(N4CCC(OC)CC4)n3)cc21 (racemic; form 2) | – | 17 | – | logD [17]: 2.9
24 | Cc1nc2cnc(Nc3ccnc(N4CC[C@H](O)[C@H](F)C4)n3)cc2n1C(C)C (racemic) | 1.5 | 13 | 910 | clearance [8]: 90 mL/min/kg; CL free [9]: 545 mL/min/kg; EC50 [3]: 1600 nM
25 | CC(C)n1c(CO)nc2cnc(Nc3ccnc(N4CC[C@H](O)[C@H](F)C4)n3)cc21 (racemic) | 1.6 | 16 | > 0.53 | clearance [15]: 151 mL/min/kg; CL free [16]: 382 mL/min/kg; EC50 [3]: > 10000 nM; IC50 [5]: > 10000 nM
26 | CO[C@H]1CCN(c2nccc(Nc3cc4c(cn3)nc([C@@H](C)O)n4[C@H](C)C(F)(F)F)n2)C[C@H]1F | 2.2 | 1.1 | 122 | Ki [18]: 7 nM; clearance [8]: 23 mL/min/kg; CL free [9]: 334 mL/min/kg; Drug metabolism [19]: metabolite_detected; Drug metabolism [20]: metabolite_detected; EC50 [3]: 112 nM; EC50 [21]: 7800 nM; EC50 [22]: 90 nM; half-life [23]: 1.7 h; Vd [24]: 3.7 L/kg; bioavailability [25]: 85%; IC50 [26]: 27 nM; IC50 [5]: > 10000 nM
27 | Cc1nc2cnc(Nc3ccnc(/C=C/C(C)(C)O)n3)cc2n1C(C)C | 2 | – | > 2500 | clearance [15]: 50 mL/min/kg; CL free [16]: 200 mL/min/kg
28 | CC(C)n1cnc2cnc(Nc3ccnc(N4CCC(C(N)=O)CC4)n3)cc21 | 1.7 | 151 | – | –
29 | Cc1nc2cnc(Nc3ccnc(NCC(C)(C)S(C)(=O)=O)n3)cc2n1C(C)C | 1.4 | – | 1820 | Stability [6]: Stable; Stability [7]: Stable; clearance [27]: 158 mL/min/kg; CL free [28]: 707 mL/min/kg
30 | Cc1nc2cnc(Nc3ccnc(OCC(C)(C)S(C)(=O)=O)n3)cc2n1C(C)C | 1.6 | 52 | 2100 | Stability [6]: Stable; Stability [7]: Stable; clearance [15]: 53 mL/min/kg; CL free [16]: 156 mL/min/kg
31 | Cc1nc2cnc(Nc3ccnc(N4CCC(O)CC4)n3)cc2n1C(C)C | 1.8 | 34 | – | Stability [6]: Unstable
32 | Cc1nc2cnc(Nc3ccnc(SCC(C)(C)C(N)=O)n3)cc2n1C(C)C | 1.9 | 658 | > 2500 | –
33 | COC1(CO)CCN(c2nccc(Nc3cc4c(cn3)nc(C)n4C(C)C)n2)CC1 | 1.7 | 24 | – | Stability [7]: Stable
34 | COC1CCN(c2nccc(Nc3cc4c(cn3)ncn4CC(F)(F)F)n2)CC1 | 2.8 | 71 | – | –
35 | CCC(C)n1cnc2cnc(Nc3ccnc(N4CCC(OC)CC4)n3)cc21 (racemic; form 1) | 2.8 | 14 | – | –
36 | COC1(CN(C)C)CCN(c2nccc(Nc3cc4c(cn3)nc(C)n4C(C)C)n2)CC1 | 1.5 | 492 | – | –
37 | CO[C@H]1CCN(c2nccc(Nc3cc4c(cn3)nc(C)n4C(C)C)n2)C[C@H]1F (racemic) | 2.3 | 2.7 | 1080 | EC50 [3]: 560 nM; IC50 [5]: > 10000 nM
38 | Cc1nc2cnc(Nc3ccnc(/C=C/C(C)(C)C(N)=O)n3)cc2n1C(C)C | 2.2 | 196 | > 1500 | Stability [6]: Stable; Stability [7]: Stable
39 | CO[C@H]1CCN(c2nccc(Nc3cc4c(cn3)nc(CO)n4C(C)C)n2)C[C@H]1F (racemic) | – | 4.3 | 150 | clearance [27]: 107 mL/min/kg; CL free [28]: 584 mL/min/kg; EC50 [3]: 880 nM; IC50 [5]: > 10000 nM
